Reference: patent US12171768B2, “IRAK4 degraders and uses thereof” (priority 2021, dated 2024)

Experiment: Diastereomer interconversion
Format: physicochemical
Details: in vitro and in vivo

SMILES	Diastereomer interconversion
Cn1c(=O)n([C@H]2CCC(=O)NC2=O)c2cccc(C#CCOC3CCN(C[C@H]4CC[C@H](n5cc(NC(=O)c6cnn7ccc(N8C[C@H]9C[C@@H]8CO9)nc67)c(C(F)F)n5)CC4)CC3)c21 [Compound B, 5-((1R,4R)-2-oxa-5-azabicyclo[2.2.1]heptan-5-yl)-N-(3-(difluoromethyl)-1-((1r,4R)-4-((4-((3-(1-((S)-2,6-dioxopiperidin-3-yl)-3-methyl-2-oxo-2,3-dihydro-1H-benzo[d]imidazol-4-yl)prop-2-yn-1-yl)oxy)piperidin-1-yl)methyl)cyclohexyl)-1H-pyrazol-4-yl)pyrazolo[1,5-a]pyrimidine-3-carboxamide]	interconvert rapidly
Cn1c(=O)n([C@@H]2CCC(=O)NC2=O)c2cccc(C#CCOC3CCN(C[C@H]4CC[C@H](n5cc(NC(=O)c6cnn7ccc(N8C[C@H]9C[C@@H]8CO9)nc67)c(C(F)F)n5)CC4)CC3)c21 [Compound C, 5-((1R,4R)-2-oxa-5-azabicyclo[2.2.1]heptan-5-yl)-N-(3-(difluoromethyl)-1-((1r,4R)-4-((4-((3-(1-((R)-2,6-dioxopiperidin-3-yl)-3-methyl-2-oxo-2,3-dihydro-1H-benzo[d]imidazol-4-yl)prop-2-yn-1-yl)oxy)piperidin-1-yl)methyl)cyclohexyl)-1H-pyrazol-4-yl)pyrazolo[1,5-a]pyrimidine-3-carboxamide]	interconvert rapidly
